# Reference: ChEMBL document CHEMBL4602703, “Lead Optimization of a Pyrrole-Based Dihydroorotate Dehydrogenase Inhibitor Series for the Treatment of Malaria” (J Med Chem, 2020)
# Tests used:
# [1] = Cmax in Sprague-Dawley rat at 33 mg/kg, po administered via gavage measured up to 24 hrs by LC-MS analysis; format: ADME, organism-based; set-up: dose 33 mg/kg, route oral; conditions: in vivo
# Albumin = Albumin (Homo sapiens, UniProt P02768); test: Binding affinity to albumin (unknown origin) by chromatographic method; format: ADME; conditions: albumin, read-out: PB (converted)
# Albumin, sequence (P02768 whole entry): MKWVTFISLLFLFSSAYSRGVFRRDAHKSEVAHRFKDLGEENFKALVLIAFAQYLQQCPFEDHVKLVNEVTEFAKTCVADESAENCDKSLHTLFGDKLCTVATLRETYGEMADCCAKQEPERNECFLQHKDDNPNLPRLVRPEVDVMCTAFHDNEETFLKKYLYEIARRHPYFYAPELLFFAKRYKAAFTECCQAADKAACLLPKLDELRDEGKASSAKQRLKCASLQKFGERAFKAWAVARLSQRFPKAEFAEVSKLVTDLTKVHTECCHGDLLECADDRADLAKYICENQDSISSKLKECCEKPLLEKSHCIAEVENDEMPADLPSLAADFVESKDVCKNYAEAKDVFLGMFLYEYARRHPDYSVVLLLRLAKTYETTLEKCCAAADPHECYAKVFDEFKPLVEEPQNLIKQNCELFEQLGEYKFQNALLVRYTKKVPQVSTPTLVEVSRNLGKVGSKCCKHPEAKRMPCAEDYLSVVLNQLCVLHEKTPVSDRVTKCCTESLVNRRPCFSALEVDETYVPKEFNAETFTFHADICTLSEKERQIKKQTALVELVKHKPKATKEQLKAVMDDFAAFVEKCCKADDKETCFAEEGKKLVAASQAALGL
# Cytochrome P450 2D6 [2] = molecular target: T1, Cytochrome P450 2D6 (Homo sapiens, UniProt P10635); test: Time-dependent inhibition of CYP2D6 in human liver microsomes using dextromethorphan as substrate in absence of NADPH regenerating system by UPLC-MS analysis; format: ADME
# T1 sequence (P10635 whole entry): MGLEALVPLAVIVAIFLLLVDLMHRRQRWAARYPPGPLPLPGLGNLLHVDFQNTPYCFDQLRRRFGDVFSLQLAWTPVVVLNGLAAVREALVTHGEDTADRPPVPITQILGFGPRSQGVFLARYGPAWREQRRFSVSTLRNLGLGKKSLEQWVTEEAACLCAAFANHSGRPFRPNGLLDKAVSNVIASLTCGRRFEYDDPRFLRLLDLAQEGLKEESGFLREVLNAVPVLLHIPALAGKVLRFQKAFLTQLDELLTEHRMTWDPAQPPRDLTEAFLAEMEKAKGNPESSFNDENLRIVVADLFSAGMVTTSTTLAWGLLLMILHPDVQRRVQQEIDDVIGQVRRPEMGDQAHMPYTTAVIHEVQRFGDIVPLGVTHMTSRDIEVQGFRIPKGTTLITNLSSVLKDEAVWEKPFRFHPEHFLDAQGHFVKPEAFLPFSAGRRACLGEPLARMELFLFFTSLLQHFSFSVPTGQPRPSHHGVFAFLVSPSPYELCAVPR
# [3] = Oral bioavailability in Swiss mouse at 18.3 mg/kg dosed via gavage measured up to 24 hrs by UPLC-MS analysis; format: ADME, organism-based; conditions: in vivo
# [4] = simulated gi fluid, pH 5.8
# [5] = Cmax in Swiss mouse at 50 mg/kg, po via gavage measured up to 24 hrs by UPLC-MS analysis; format: ADME, organism-based; set-up: dose 50 mg/kg, route oral; conditions: in vivo
# CYP3A4/5 [6] = molecular target: T2, CYP3A4/5 (Homo sapiens, UniProt P08684+P20815); test: in vitro; conditions: liver microsomes, probe midazolam
# HepG2 = test: Cytotoxicity against human HepG2 cells assessed as reduction in cell viability; format: cell-based
# Cytochrome P450 2C19 = Cytochrome P450 2C19 (Homo sapiens, UniProt P33261); test: Inhibition of CYP2C19 in human liver microsomes using (S)-mephenytoin as substrate measured for 10 to 30 mins in presence of NADPH regenerating system by UPLC-MS analysis; format: ADME
# Cytochrome P450 2C19, sequence (P33261 whole entry): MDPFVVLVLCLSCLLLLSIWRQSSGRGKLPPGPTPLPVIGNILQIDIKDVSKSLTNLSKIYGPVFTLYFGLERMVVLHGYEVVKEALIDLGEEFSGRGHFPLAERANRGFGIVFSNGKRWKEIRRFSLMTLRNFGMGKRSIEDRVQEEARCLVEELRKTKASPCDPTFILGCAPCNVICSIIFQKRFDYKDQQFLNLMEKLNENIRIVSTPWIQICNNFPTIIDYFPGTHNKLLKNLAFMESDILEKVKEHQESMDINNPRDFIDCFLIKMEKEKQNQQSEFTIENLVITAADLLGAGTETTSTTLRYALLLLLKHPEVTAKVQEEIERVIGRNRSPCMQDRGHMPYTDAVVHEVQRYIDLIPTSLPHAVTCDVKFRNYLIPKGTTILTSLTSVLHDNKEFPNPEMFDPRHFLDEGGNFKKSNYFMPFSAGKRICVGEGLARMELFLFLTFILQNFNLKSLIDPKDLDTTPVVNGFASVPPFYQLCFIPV
# Cytochrome P450 2D6 [7] = molecular target: T1, Cytochrome P450 2D6; test: Inhibition of CYP2D6 in human liver microsomes using dextromethorphan as substrate measured for 10 to 30 mins in presence of NADPH regenerating system by UPLC-MS analysis; format: ADME
# [8] = Apparent half life in Sprague-Dawley rat at 33 mg/kg, po administered via gavage measured up to 24 hrs by LC-MS analysis; format: ADME, organism-based; conditions: in vivo
# [9] = buffer, pH 7.4
# [10] = AUC (0 to 23 hrs) in NOD-SCID IL2Rgamma null mouse blood infected with Plasmodium falciparum 3D70087/N9 at 10 mg/kg, po qd for 4 days starting from 3 days post infection and measured after 24 hrs post dose by LC-MS/MS analysis; format: ADME, organism-based; set-up: dose 10 mg/kg, time < 23 hr, route oral
# [11] = Intrinsic clearance in liver microsomes assessed as per mg protein; conditions: read-out: CLH
# CYP3A4/5 [12] = molecular target: T2, CYP3A4/5; test: in vitro; conditions: liver microsomes, probe midazolam; remark: listed apart in the source
# Cytochrome P450 2C9 = Cytochrome P450 2C9 (Homo sapiens, UniProt P11712); test: Inhibition of CYP2C9 in human liver microsomes using tolbutamide as substrate measured for 10 to 30 mins in presence of NADPH regenerating system by UPLC-MS analysis; format: ADME
# Cytochrome P450 2C9, sequence (P11712 whole entry): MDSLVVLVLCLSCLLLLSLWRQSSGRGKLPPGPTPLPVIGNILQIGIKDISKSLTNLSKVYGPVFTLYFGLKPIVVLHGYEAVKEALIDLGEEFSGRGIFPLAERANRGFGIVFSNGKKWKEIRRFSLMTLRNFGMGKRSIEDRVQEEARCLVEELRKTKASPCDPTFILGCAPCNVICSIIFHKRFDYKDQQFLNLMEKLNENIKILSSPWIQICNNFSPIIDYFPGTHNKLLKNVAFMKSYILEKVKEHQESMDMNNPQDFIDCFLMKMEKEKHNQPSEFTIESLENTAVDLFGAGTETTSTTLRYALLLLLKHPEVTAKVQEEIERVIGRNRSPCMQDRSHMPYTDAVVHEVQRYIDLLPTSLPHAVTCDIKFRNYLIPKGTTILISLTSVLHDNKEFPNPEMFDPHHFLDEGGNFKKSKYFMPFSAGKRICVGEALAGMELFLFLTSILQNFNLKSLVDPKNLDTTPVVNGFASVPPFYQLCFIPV
# CYP3A4/5 [13] = molecular target: T2, CYP3A4/5; test: in vitro; conditions: liver microsomes, probe midazolam; remark: listed apart in the source
# [14] = Oral bioavailability in Sprague-Dawley rat at 3 mg/kg administered via gavage measured up to 24 hrs by LC-MS analysis; format: ADME, organism-based; conditions: in vivo
# Cytochrome P450 1A2 [15] = molecular target: T3, Cytochrome P450 1A2 (Homo sapiens, UniProt P05177); test: Time-dependent inhibition of CYP1A2 in human liver microsomes using phenacetin as substrate in absence of NADPH regenerating system by UPLC-MS analysis; format: ADME
# T3 sequence (P05177 whole entry): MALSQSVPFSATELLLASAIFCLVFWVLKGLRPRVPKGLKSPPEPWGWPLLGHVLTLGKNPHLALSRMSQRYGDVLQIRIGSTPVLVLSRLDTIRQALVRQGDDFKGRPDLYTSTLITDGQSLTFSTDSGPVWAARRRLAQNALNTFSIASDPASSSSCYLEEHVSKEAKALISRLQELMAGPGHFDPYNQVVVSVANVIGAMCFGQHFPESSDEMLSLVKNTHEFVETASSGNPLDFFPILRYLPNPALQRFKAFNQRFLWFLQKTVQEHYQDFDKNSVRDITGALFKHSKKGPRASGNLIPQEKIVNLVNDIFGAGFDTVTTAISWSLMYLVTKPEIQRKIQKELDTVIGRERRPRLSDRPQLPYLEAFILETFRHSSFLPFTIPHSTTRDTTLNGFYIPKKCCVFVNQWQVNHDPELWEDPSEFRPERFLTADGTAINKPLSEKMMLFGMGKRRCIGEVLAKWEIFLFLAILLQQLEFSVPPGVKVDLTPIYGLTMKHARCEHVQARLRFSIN
# Cytochrome P450 1A2 [16] = molecular target: T3, Cytochrome P450 1A2; test: Inhibition of CYP1A2 in human liver microsomes using phenacetin as substrate measured for 10 to 30 mins in presence of NADPH regenerating system by UPLC-MS analysis; format: ADME
# [17] = Cmax in NOD-SCID IL2Rgamma null mouse blood infected with Plasmodium falciparum 3D70087/N9 at 10 mg/kg, po qd for 4 days starting from 3 days post infection and measured after 24 hrs post dose by LC-MS/MS analysis; format: ADME, organism-based; set-up: dose 10 mg/kg, route oral
# [18] = simulated gi fluid, pH 6.5
# Cytochrome P450 2D6 [19] = molecular target: T1, Cytochrome P450 2D6; test: Time-dependent inhibition of CYP2D6 in human liver microsomes using dextromethorphan as substrate in presence of NADPH regenerating system by UPLC-MS analysis; format: ADME
# CYP3A4/5 [20] = molecular target: T2, CYP3A4/5; test: in vitro; conditions: liver microsomes, probe testosterone
# [21] = Toxicity in Plasmodium falciparum 3D70087/N9 infected NOD-SCID IL2Rgamma null mouse at 50 mg/kg, po administered once daily for 4 days measured 24 hrs post dose; format: organism-based; conditions: in vivo
# [22] = Intrinsic clearance in human liver microsomes assessed as per mg protein; format: ADME, Microsome
# [23] = Inhibition of yeast DHODH transformed in Plasmodium falciparum D10 in presence of 10 uM proguanil; set-up: species or system Saccharomyces cerevisiae
# [24] = AUC (0 to infinity) in Sprague-Dawley rat at 3 mg/kg, po administered via gavage measured up to 24 hrs by LC-MS analysis; format: ADME, organism-based; set-up: dose 3 mg/kg, route oral, time infinity; conditions: in vivo
# [25] = AUC (0 to infinity) in Swiss mouse blood at 50 mg/kg, po via gavage measured up to 24 hrs by UPLC-MS analysis; format: ADME, organism-based; set-up: dose 50 mg/kg, time infinity, route oral; conditions: in vivo
# [26] = AUC (0 to infinity) in Sprague-Dawley rat at 33 mg/kg, po administered via gavage measured up to 24 hrs by LC-MS analysis; format: ADME, organism-based; set-up: dose 33 mg/kg, time infinity, route oral; conditions: in vivo
# [27] = Apparent half life in Sprague-Dawley rat at […], iv administered as infusion for 10 mins and measured up to 24 hrs by LC-MS analysis; format: ADME, organism-based; conditions: in vivo, read-out: t1/2(app) (converted)
# [28] = Protein binding in rat plasma by LC-MS analysis based ultracentrifugation assay; format: ADME, cell-free; conditions: read-out: PPB (converted)
# [29] = Cmax in Swiss mouse blood at 18.3 mg/kg, po via gavage measured up to 24 hrs by UPLC-MS analysis; format: ADME, organism-based; set-up: dose 18.3 mg/kg, route oral; conditions: in vivo
# [30] = fAUC in Plasmodium falciparum 3D70087/N9 infected po dosed NOD-SCID IL2Rgamma null mouse blood administered once daily for 4 days; format: ADME, organism-based; conditions: in vivo, 96 h
structure (smiles),measurement,setting,value
Cc1c(Cc2ccc(C(F)(F)F)nc2)c[nH]c1C(=O)NC1CC1,Cmax,[1],27 µM
same,fraction unbound,Albumin,0.238
same,TDI,Cytochrome P450 2D6 [2],Active
same,F,[3],> 100%
same,solubility,[4],115 µg/mL
same,Cmax,[5],42.3 µM
same,IC50,CYP3A4/5 [6],> 20 µM
same,CC50,HepG2,> 50 µM
same,IC50,Cytochrome P450 2C19,> 20 µM
same,IC50,Cytochrome P450 2D6 [7],> 20 µM
same,t1/2(app),[8],2.8 h
same,solubility,[9],45.6 µg/mL
same,AUC at 23 h,[10],2.1 µM·h
same,microsomal CLint,[11],24 µL/min/mg
same,IC50,CYP3A4/5 [12],5.5 µM
same,IC50,Cytochrome P450 2C9,> 20 µM
same,IC50,CYP3A4/5 [13],> 20 µM
same,F,[14],91%
same,TDI,Cytochrome P450 1A2 [15],Not Active
same,IC50,Cytochrome P450 1A2 [16],> 20 µM
same,Cmax,[17],0.6 µM
same,solubility,[18],60.1 µg/mL
same,TDI,Cytochrome P450 2D6 [19],Not Active
same,IC50,CYP3A4/5 [20],5.5 µM
same,Activity,[21],Toxic
same,microsomal CLint,[22],10 µL/min/mg
same,EC50,[23],> 20 µM
same,AUC,[24],5.1 µM·h
same,AUC,[25],176 µM·h
same,AUC,[26],204 µM·h
same,half-life,[27],14.6 h
same,fraction unbound,[28],0.118
same,Cmax,[29],6.7 µM
same,fAUC,[30],1100 ng·h/mL
